Measured values taken from US20210246128A1, “BICYCLE TOPOISOMERASE I INHIBITING COMPOUNDS, PROCESS FOR PREPARATION AND USE THEREOF” (Council of Scientific & Industrial Research, priority 2018, published 2021).
≈ marks a conversion by molar mass, not a printed value. Read-outs that look alike come from different tables or passages of the source. Values belong to the molecule of their own block, whether it stands above or below them.

Columns and labels:
[1] = Solubility assay (pH 7.4 pION buffer, UV); format: physicochemical; conditions: pH 7.4 pION buffer, aqueous buffer, kinetic from dmso stock; pH 7.4 buffer, 18 hours incubation; read-out: Avg. Solubility (μg/mL) at pH 7.4
Protocol: 5 μL of 20 mM DMSO stock from the stock plate was added to the reaction deep well plate containing 495 μL of pH 7.4 pION buffer (including DMSO control) respectively and the samples were mixed and incubated for 18 hours. The plate was sealed well during the incubation process. The DMSO content in the sample was <1.0%. The concentration in deep well plates was 200 μM. 4 μL of 20 mM stock (including DMSO control) was added to 996 μL of acetonitrile to prepare the working stock plate. 75 μL of working stock was added to 75 μL of blank buffer and read on spectrophotometer as reference plate at 240 nm. At the end of the incubation period, 100 μL of sample from storage plate was vacuum filtered using a filter plate. This step wets the filters and the filtrate was discarded. Another 200 μL of the sample from deep well plate was vacuum filtered in to a new filter collection plate. 75 μL of the filtrate from the filter collection plate was transferred to a UV sample plate. 75 μL of acetonitrile was added to this UV plate. The solution was mixed and the spectrum was read using the UV spectrophotometer at 240 nm. Plates were read on spectramax using SoftMax Pro software version 5.3.

[2] = target: T1, recombinant human TopI (HTopI) (Homo sapiens, UniProt P11387); assay: Gel based plasmid DNA relaxation assay with recombinant TopI (in vitro); format: biochemical; conditions: for inhibition at 10 µM: read-out: In vitro inhibition at 10 μM; for IC50: plasmid DNA relaxation
T1 sequence (P11387 1-765): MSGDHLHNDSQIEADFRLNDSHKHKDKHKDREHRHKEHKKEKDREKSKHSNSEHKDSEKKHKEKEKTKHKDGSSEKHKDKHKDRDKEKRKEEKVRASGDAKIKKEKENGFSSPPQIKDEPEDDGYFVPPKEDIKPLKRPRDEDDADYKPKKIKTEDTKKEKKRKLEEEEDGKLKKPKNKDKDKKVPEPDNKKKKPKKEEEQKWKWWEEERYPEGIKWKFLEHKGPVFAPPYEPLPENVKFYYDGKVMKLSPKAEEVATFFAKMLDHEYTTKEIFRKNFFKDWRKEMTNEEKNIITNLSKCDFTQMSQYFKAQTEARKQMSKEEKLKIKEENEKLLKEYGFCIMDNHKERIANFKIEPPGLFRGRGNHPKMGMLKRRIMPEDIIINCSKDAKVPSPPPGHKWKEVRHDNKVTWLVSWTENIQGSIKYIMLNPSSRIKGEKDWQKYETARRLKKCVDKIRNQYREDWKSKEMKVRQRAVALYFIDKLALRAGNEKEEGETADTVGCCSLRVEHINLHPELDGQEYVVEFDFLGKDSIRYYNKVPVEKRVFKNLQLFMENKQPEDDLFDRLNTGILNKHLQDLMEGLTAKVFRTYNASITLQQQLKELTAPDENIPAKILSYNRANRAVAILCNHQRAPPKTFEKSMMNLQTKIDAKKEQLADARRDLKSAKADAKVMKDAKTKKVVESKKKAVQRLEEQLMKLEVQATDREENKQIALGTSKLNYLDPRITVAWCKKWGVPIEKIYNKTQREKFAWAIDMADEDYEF
Protocol: (§1) Human ToPI Inhibition in Plasmid DNA Relaxation Assays with Recombinant TopI (In Vitro) or MCF7 Cell Lysates (Ex Vivo)
(§2) Relaxation of supercoiled pBSSK(^+) DNA with recombinant human TopI (HTopI) at a molar ratio of 3:1 at 37° C. for 30 minutes was performed

Plasma stability assay = format: in vitro ADME; conditions: pH 7.4, 37° C., 1 μM
Protocol: The stock solution of 10 mM of test compound in DMSO was prepared and stored at 4° C. 25 μM stock of test compound was prepared in acetonitrile: water by diluting from 10 mM stock (i.e. 2.5 μL of 10 mM stock solution was added to 997.5 μL of acetonitrile: water (50:50). The frozen plasma was thawed at room temperature and centrifuged at 1400×RCF (relative centrifugal force) 4° C., for 15 minutes. Approximately 90% of the clear supernatant fraction was transferred to a separate tube and was used for the assay.
For 0 min samples, plasma was heat inactivated at 56° C. for 45 min. To 72 μL of heat inactivated plasma, 3 μL of 25 μM test compound was added. A 25 μL aliquot of the mixture was taken and crashed with 200 μL of acetonitrile containing internal standard and further processed along with other time points. For other time point samples, final working stock of 1 μM was prepared by diluting in plasma (i.e. 8 μL of 25 μM acetonitrile:water stock was added to 192 μL of plasma). 200 μL of plasma containing the test compound was incubated for 2 hrs at 37° C. in shaker water bath with gentle shaking. 25 μL aliquot of sample at 0, 15, 30, 60 and 120 min was precipitated immediately with 200 μL of acetonitrile containing internal standard and centrifuged at 4000×RCF, 4° C. for 20 minutes. 150 μL of supernatant was diluted with 150 μL of water and analyzed on LC-MS/MS.

[3] = Caco-2 permeability (21 day culture of Caco-2 cell monolayer); format: in vitro ADME; conditions: human; for recovery at 120 min, 10 μM: Caco-2, pH 7.4, Caco-2; for Papp A→B at 120 min, 10 μM / Papp B→A at 120 min, 10 μM: pH 7.4, Caco-2, 10 μM; for Papp A→B at 120 min, 10 μM: read-out: Papp Apical to Basal; for Papp B→A at 120 min, 10 μM: read-out: Papp Basal to Apical
Protocol: 5 mL of 100 mM sodium pyruvate, 5 mL of 10× non-essential amino acids, 5 mL of penstrep were added to 100 mL of heat inactivated foetal bovine serum to 385 mL of DMEM aseptically and mixed thoroughly. One vial of Hank's balanced salt (Sigma-H1387) was dissolved in 900 mL of milli Q water; adjusted the pH to 7.4 and made up the volume to 1000 mL with the same. The solution was filter sterilized and stored at 4° C. Stock solution of test compound (10 mM) was prepared in DMSO. 10 mM stock was diluted with HBSS Buffer to a final concentration of 10 μM.
250 μL of DMEM was added to the basal compartment of 96 well multi-screen Caco-2 plate and seeded 12000 cells/well (0.16×10^6 cells/ml) in all the apical wells required and one well with only media as blank without cells, placed the Caco-2 plate in CO2 incubator at 37° C. for proliferation of cells.
On the day of assay, medium was removed and washed twice with HBSS Buffer and incubated with HBSS buffer for 30 min in an incubator and wells with TEER values >230 ohm·cm^2 were selected for the incubation. 75 μL of test compound was added to apical wells and 250 μL of HBSS buffer with 2% BSA was added to basal wells. 25 μL of basal samples was collected at 120 min and processed as stated below.
250 μL of test compound was added to basal wells and 75 μL of HBSS buffer with 2% BSA was added to apical wells. 25 μL of apical samples was collected at 120 min and processed as stated below.
Single point calibration curve in HBSS buffer with 2% BSA was used. Donor samples were diluted 1:1 with HBSS containing 2% BSA and receiver samples were diluted with 1.1 HBSS buffer and precipitated with 200 μL of acetonitrile containing internal standard and vortexed for 5 min @ 1000 rpm, centrifuged at 4000 rpm for 10 min. Finally 100 μL of supernatant was diluted with 200 μL of water and submitted for LC-MS/MS analysis.

[4] = target: T2, endogenous TopI from the whole cell extracts of human breast adenocarcinoma (MCF7) cell (Homo sapiens, UniProt P11387); assay: Plasmid DNA relaxation assay with MCF7 cell lysates (ex vivo); format: biochemical; conditions: MCF7 cell lysates as source of TopI
T2 construct: TopI enzyme in the extract is conserved in its native structure among a plethora of other cellular proteins; endogenous in cells; host or cells: MCF7 whole cell extract
T2 sequence (P11387 1-765): T1 sequence (P11387 1-765)
Protocol: as §1, §2
cellular extracts were utilized as a source of TopI (ex vivo) in plasmid DNA relaxation assays. TopI enzyme in the extract is conserved in its native structure among a plethora of other cellular proteins.

[5] = Lipophilicity assay (octanol/buffer Log D); conditions: octanol / sodium phosphate buffer pH 7.4
Protocol: 1.56 g NaH2PO4.2H2O was dissolved in 0.5 L water in a 1 L beaker. After adjusting pH to 7.4 using NaOH solution, the volume was made up to 1 L. Equal volumes of sodium phosphate buffer (10 mM, pH 7.4) and n-octanol were added to a separation funnel and mixed thoroughly by shaking and inverting the funnel several times. The two layers were allowed to separate for 2 days and then dispensed in two separate glass bottles. 10 mM stock solution was prepared in 100% DMSO and stored at 4° C. 500 μL of organic phase (1-octanol) was added to each well of a 2 mL deep well plate, followed by 500 μL of buffer and 15 μL of test substance was added. The plate was vortexed for 1 hr on a plate shaker at 1200 rpm. After incubation, the samples were allowed to equilibrate for 20 min and then centrifuged at 4000 rpm for 30 min for complete phase separation and analysed by LC-UV.
Log D=Log(area of octanol/area of buffer)
Mean, SD and % CV for each set of triplicates were calculated

[6] = recombinant human TopI, at 10 μM

Molecule: CCCSc1ccc2nc(NC(=O)OC)[nH]c2c1 [Albendazole, reference compound]
solubility at 18 h [1]: 3.31 µg/mL (≈ 12.5 µM)

Molecule: CCOC(=O)c1cnc2ccc(Br)cc2c1NCCCn1ccnc1 [Compound 15, ethyl 4-((3-(1H-imidazol-1-yl)propyl)amino)-6-bromoquinoline-3-carboxylate]
inhibition at 10 µM [2, 6]: 30%

Molecule: Brc1ccc2ncc(-c3nnco3)c(NCCCn3ccnc3)c2c1 [Compound 17, N-(3-(1H-imidazol-1-yl)propyl)-6-bromo-3-(1,3,4-oxadiazol-2-yl)quinolin-4-amine]
inhibition at 10 µM [2, 6]: 30%

Molecule: Nc1ccc(-c2ccc3ncc(-c4nnco4)c(NCCCn4ccnc4)c3c2)cc1 [Compound 20, N-(3-(1H-imidazol-1-yl)propyl)-6-(4-aminophenyl)-3-(1,3,4-oxadiazol-2-yl)quinolin-4-amine]
Mean % remaining at 2 hrs in human Plasma (Plasma stability assay): 91.32%
recovery at 120 min, 10 μM ([3]; read-out: A to B % Recovery): 72.7%
recovery at 120 min, 10 μM ([3]; read-out: B to A % Recovery): 91.7%
Papp A→B at 120 min, 10 μM [3]: 0.63 ×10⁻⁶ cm/s
Papp B→A at 120 min, 10 μM [3]: 44.2 ×10⁻⁶ cm/s
IC50 ([2]; recombinant human TopI): 0.024 µM
IC50 [4]: 2.25 µM
Log D @ pH 7.40 Mean [5]: 2.56

Molecule: Cc1ccc(-c2ccc3ncc(-c4nnco4)c(NCCCn4ccnc4)c3c2)cc1 [Compound 29, N-(3-(1H-imidazol-1-yl)propyl)-3-(1,3,4-oxadiazol-2-yl)-6-p-tolylquinolin-4-amine]
IC50 ([2]; recombinant human TopI): 1.06 µM
IC50 [4]: 3.75 µM

Molecule: COc1ccc(-c2ccc3ncc(-c4nnc(N)o4)c(NCCCn4ccnc4)c3c2)cc1 [Compound 52, 5-(4-(3-(1H-imidazol-1-yl)propylamino)-6-(4-methoxyphenyl)quinolin-3-yl)-1,3,4-oxadiazol-2-amine]
inhibition at 10 µM [2]: 45%

Molecule: CC(C(=O)O)c1ccc(-c2ccccc2)c(F)c1 (stereo not drawn) [Flurbiprofen, reference compound]
solubility at 18 h [1]: 54 µg/mL (≈ 221 µM)

Molecule: COCCc1ccc(OCC(O)CNC(C)C)cc1 (stereo not drawn) [Metoprolol, reference compound]
Log D @ pH 7.40 Mean [5]: −0.29

Molecule: CC(C)[N+](C)(CCOC(=O)C1c2ccccc2Oc2ccccc21)C(C)C [Propantheline, reference compound]
Mean % remaining at 2 hrs in human Plasma (Plasma stability assay): 0.00%

Molecule: CC(C)NCC(O)COc1cccc2ccccc12 (stereo not drawn) [Propranolol, reference compound]
recovery at 120 min, 10 μM ([3]; read-out: A to B % Recovery): 68%
recovery at 120 min, 10 μM ([3]; read-out: B to A % Recovery): 72.7%
Papp A→B at 120 min, 10 μM [3]: 19.1 ×10⁻⁶ cm/s
Papp B→A at 120 min, 10 μM [3]: 13.3 ×10⁻⁶ cm/s

Molecule: Topotecan [reference compound]
Mean % remaining at 2 hrs in human Plasma (Plasma stability assay): 11.5%

Further lines, results first:

inhibition at 10 µM [2, 6]: 50%
Molecule: COc1ccc(-c2ccc3ncc(-c4nnc(C)o4)c(NCCN4CCOCC4)c3c2)cc1 [Compound 14, 6-(4-methoxyphenyl)-3-(5-methyl-1,3,4-oxadiazol-2-yl)-N-(2-morpholinoethyl)quinolin-4-amine]

inhibition at 10 µM [2, 6]: 45%
Molecule: COc1ccc(-c2ccc3ncc(-c4nnco4)c(NCCCn4ccnc4)c3c2)c(OC)c1 [Compound 27, N-(3-(1H-imidazol-1-yl)propyl)-6-(2,4-dimethoxyphenyl)-3-(1,3,4-oxadiazol-2-yl)quinolin-4-amine]

IC50 ([2]; recombinant human TopI): 2.36 µM
IC50 [4]: 3 µM
Molecule: COc1ccc(-c2ccc3ncc(-c4nnco4)c(NCCCn4ccnc4)c3c2)cc1C [Compound 28, N-(3-(1H-imidazol-1-yl)propyl)-6-(4-methoxy-3-methylphenyl)-3-(1,3,4-oxadiazol-2-yl)quinolin-4-amine]

Mean % remaining at 2 hrs in human Plasma (Plasma stability assay): 83.38%
recovery at 120 min, 10 μM ([3]; read-out: A to B % Recovery): 42.6%
recovery at 120 min, 10 μM ([3]; read-out: B to A % Recovery): 58.5%
Papp A→B at 120 min, 10 μM [3]: 10.9 ×10⁻⁶ cm/s
Papp B→A at 120 min, 10 μM [3]: 11 ×10⁻⁶ cm/s
Log D @ pH 7.40 Mean [5]: 3.26
Molecule: COc1ccc(-c2ccc3ncc(-c4nnco4)c(NCCCN4CCOCC4)c3c2)cc1 [Compound 43, 6-(4-methoxyphenyl)-N-(3-morpholinopropyl)-3-(1,3,4-oxadiazol-2-yl)quinolin-4-amine]

inhibition at 10 µM [2, 6]: 55%
Molecule: COc1ccc(-c2ccc3ncc(-c4nnc(C)o4)c(NCCCn4ccnc4)c3c2)cc1 [Compound 54, N-(3-(1H-imidazol-1-yl)propyl)-6-(4-methoxyphenyl)-3-(5-methyl-1,3,4-oxadiazol-2-yl)quinolin-4-amine]

IC50 ([2]; recombinant human TopI): 5.24 µM
Molecule: COc1ccc(-c2ccc3ncc(-c4ccc(N)nc4)c(NCCCn4ccnc4)c3c2)cc1 [Compound 73, N-(3-(1H-imidazol-1-yl)propyl)-3-(6-aminopyridin-3-yl)-6-(4-methoxyphenyl)quinolin-4-amine]

inhibition at 10 µM [2, 6]: 20%
Molecule: CNc1c(-c2nnco2)cnc2ccc(-c3ccc(OC)cc3)cc12 [Compound 77, 6-(4-methoxyphenyl)-N-methyl-3-(1,3,4-oxadiazol-2-yl)quinolin-4-amine]

inhibition at 10 µM [2, 6]: 35%
Molecule: CCOC(=O)c1cnc2ccc(-c3ccc(OC)cc3)cc2c1NCCCn1ccnc1 [Compound 78, ethyl 4-((3-(1H-imidazol-1-yl)propyl)amino)-6-(4-methoxyphenyl)quinoline-3-carboxylate]
